Measurements reported in patent US8158088B2, “Extractant compositions for co-extracting cesium and strontium, a method of separating cesium and strontium from an aqueous feed, and calixarene compounds” (Battelle Energy Alliance, LLC, priority 2008, dated 2012).

What was measured:
Format in all cases: physicochemical
[1] = Cesium distribution ratio (DCs), equilibrium batch contact of mixed extractant solvent with nitric acid feed
Description: The distribution of cesium and strontium between the first organic phase (the mixed extractant solvent including the dialkyloxycalix[4]arenebenzocrown-6 compound) and the first aqueous phase (aqueous feed) may be determined by conventional techniques. The distribution ratio for strontium (“DSr”) may be calculated as the ratio of organic phase activity to the aqueous phase activity at equilibrium. High values for the DSr indicate that the strontium is present predominantly in the organic phase while low values for the DSr indicate that the strontium is present predominantly in the aqueous phase. Similarly, the distribution ratio for cesium (“DCs”) may be calculated as the ratio of organic phase activity to the aqueous phase activity at equilibrium. High values for the DCs indicate that the cesium is present predominantly in the organic phase while low values for the DCs indicate that the cesium is present predominantly in the aqueous phase.
Distribution ratios (DM=[M]org/[M]aq) were measured by equilibrium batch contacts between the organic and aqueous phases at an organic-to-aqueous phase ratio (O/A) of unity (O/A=1). All distribution ratio measurements were conducted in a temperature controlled water bath at 25±1° C. The aqueous phase was of the appropriate HNO3 concentration, to which trace quantities (typically, less than 10^−7 M each) of the major radionuclides of interest (^137Cs, ^85Sr, ^154Eu, or ^241Am) were added. The organic and aqueous phases were contacted by vortex mixing for 1 minute. All batch contact experiments were performed at ambient temperature (from approximately 20° C. to approximately 25° C.) unless otherwise noted. Following extraction, the samples were centrifuged for 1 minute and the organic and aqueous phases separated by pipet or centrifugation. The distribution ratios (DSr, or DCs) were calculated as the ratio of the appropriate specific activities in the organic and aqueous phases as determined by γ-ray counting (gamma spectroscopy). The counting time was selected to provide less than approximately 1% statistical uncertainty.
(MC-8, MC-8B, MC-10, MC-10B, MC-12, or MC-12B), 0.075 M DtBuCH18C6, 0.75 M Cs-7SB modifier, and 0.003 M TOA in ISOPAR® L were evaluated for their respective abilities to simultaneously extract cesium and strontium from the aqueous feed simulant composition described in Table 2. The cesium and strontium distribution ratios of the mixed extraction solvents were compared to those of the FPEX I process solvent. The cesium extraction performance and strontium extraction performance of each of the mixed extractant solvents was determined using the batch contact flowsheet presented in FIG. 1, where “E1,” “E2,” and “E3” refer to three forward extraction acts: a first extraction act, a second extraction act, and a third extraction act, respectively, and “St1” and “St2” refer to two backward extraction acts: a first strip act and a second strip act, respectively. […] The aqueous feed 2 and the mixed extractant solvent 4 were combined in a vessel 6 to conduct the extraction. Two phases were formed during the extraction: the first organic phase and the first aqueous phase, with the cesium and strontium substantially distributed in the first organic phase.
The cesium and strontium distribution ratios for the mixed extractant solvents 4 were calculated for the first organic phase and are reported in Tables 3 and 4, respectively, as E1, along with the cesium and strontium distribution ratios for the FPEX I process solvent. The cesium and strontium were stripped from the first (and subsequent) organic phase to recover these radionuclides. For the strips or backward extractions, the first (and subsequent) organic phase was contacted with dilute acidic solution 8, which was 0.01 M HNO3. […]

[2] = Solvent stability: strontium distribution ratios as a function of contact time with 1.5 M HNO3
Method: The stability of the mixed extractant solvents prepared using dialkyloxycalix[4]arenebenzocrown-6 compounds (MC-8, MC-8B, MC-10, MC-10B, MC-12, or MC-12B) relative to BOBCalixC6 in the FPEX I process solvent was determined. Samples were prepared using each of the dialkyloxycalix[4]arenebenzocrown-6 compounds and contacted with 1.5 M HNO3. The samples included 0.007 M of the respective dialkyloxycalix[4]arenebenzo-crown-6 compound (MC-8, MC-8B, MC-10, MC-10B, MC-12, or MC-12B), 0.075 M DtBuCH18C6, 0.75 M Cs-7SB modifier, and 0.003 M TOA in ISOPAR® L. The stability of the dialkyloxycalix[4]arene-benzocrown-6 based solvents was evaluated by measuring the cesium and strontium distribution ratios as a function of contact time. These cesium and strontium distribution ratios for the mixed extractant solvents are presented in Table 9 and Table 10, respectively, along with the cesium and strontium distribution ratios for the FPEX I process solvent. The symbol “-” is used in Tables 9 and 10 to indicate no data was collected.
This degradation is likely due to chemical attack or nitration of the BOBCalixC6 in the FPEX I process solvent. […] However, it is difficult to compare the relative extents of degradation. In order to compare the different extractants, the distribution ratio data presented in Tables 9 and 10 were normalized to the values obtained at t=0 days contact. The normalized cesium and strontium distribution ratios for the FPEX I process solvent and the mixed extractant solvents as a function of contact time are presented in FIGS. 2 and 3, respectively.

[3] = Solubility of the calixarene in the extractant solvent

CCCCCCCCOc1c2cccc1Cc1cccc3c1OCCOCCOc1ccccc1OCCOCCOc1c(cccc1Cc1cccc(c1OCCCCCCCC)C3)C2 [MC-8, 1,3-alternate-25,27-di(octyloxy)calix[4]arenebenzocrown-6]
DCs ([1]; 0.010 M MC-8, contact E1, 1.5 M HNO3, 0.075 M DtBuCH18C6, 0.75 M Cs-7SB, 0.003 M TOA in ISOPAR L): 7.2
DCs ([1]; 0.015 M MC-8, contact E1, 1.5 M HNO3): 13.3
DCs ([1]; 0.020 M MC-8, contact E1, 1.5 M HNO3): 21.5
DCs ([1]; 0.025 M MC-8, contact E1, 1.5 M HNO3): 29.4
cesium distribution ratio ([1]; 0.05 M MC-8 (as printed in text), 1.5 M HNO3): 29
DCs ([1]; 1.0 M HNO3, 20 °C, contact E1, 0.025 M MC-8, 0.075 M DtBuCH18C6, 0.75 M Cs-7SB, 0.003 M TOA in ISOPAR L): 31.0
DCs ([1]; 1.5 M HNO3, 20 °C, contact E1, 0.025 M MC-8): 35.6
DCs ([1]; 2.0 M HNO3, 20 °C, contact E1, 0.025 M MC-8): 39.9
DCs ([1]; 3.0 M HNO3, 20 °C, contact E1, 0.025 M MC-8): 3rd phase
DCs ([1]; 4.0 M HNO3, 20 °C, contact E1, 0.025 M MC-8): 3rd phase
DCs ([1]; 15 °C, contact E1, 1.0 M HNO3 feed, 0.025 M MC-8, 0.075 M DtBuCH18C6, 0.75 M Cs-7SB, 0.003 M TOA in ISOPAR L): 44.5
DCs ([1]; 20 °C, contact E1, 1.0 M HNO3 feed, 0.025 M MC-8): 24.5
DCs ([1]; 25 °C, contact E1, 1.0 M HNO3 feed, 0.025 M MC-8): 15.7
DCs ([1]; 30 °C, contact E1, 1.0 M HNO3 feed, 0.025 M MC-8): 9.9
DCs ([1]; 35 °C, contact E1, 1.0 M HNO3 feed, 0.025 M MC-8): 6.2
DCs ([1]; contact E1, batch contact flowsheet, simulated feed 1.0 M HNO3, 0.025 M MC-8): 34.7
DCs ([1]; contact E2, simulated feed 1.0 M HNO3, 0.025 M MC-8): 29.0
DCs ([1]; contact E3, simulated feed 1.0 M HNO3, 0.025 M MC-8): 21.9
DCs ([1]; contact St1 (strip), 0.025 M MC-8): 0.63
DCs ([1]; contact St2 (strip), 0.025 M MC-8): 0.25
Cesium distribution ratio, contact E1 ([1]; first forward extraction, 1.5 M HNO3 feed simulant, 25 °C, 0.007 M calixarene, 0.075 M DtBuCH18C6, 0.75 M Cs-7SB, 0.003 M TOA in ISOPAR L): 4.2
Cesium distribution ratio, contact St1 ([1]; first strip with 0.01 M HNO3, 35 °C, 0.007 M calixarene solvent): 0.6
Cesium distribution ratio, contact E2 ([1]; second forward extraction, 1.5 M HNO3 feed, 25 °C, 0.007 M calixarene solvent): 1.9
Cesium distribution ratio, contact St2 ([1]; second strip with 0.01 M HNO3, 35 °C, 0.007 M calixarene solvent): 0.2
Cesium distribution ratio, contact E3 ([1]; third forward extraction, 1.5 M HNO3 feed, 25 °C, 0.007 M calixarene solvent): 1.5
Strontium distribution ratio as a function of contact time ([2]; contact time 0 days with 1.5 M HNO3, 0.007 M calixarene, 0.075 M DtBuCH18C6, 0.75 M Cs-7SB, 0.003 M TOA in ISOPAR L): 10.5
Strontium distribution ratio as a function of contact time ([2]; contact time 34 days with 1.5 M HNO3): 7.7
Strontium distribution ratio as a function of contact time ([2]; contact time 70 days with 1.5 M HNO3): 9.3
Strontium distribution ratio as a function of contact time ([2]; contact time 278 days with 1.5 M HNO3): 8.0
precipitation on storage ([3]; 0.05 M MC-8 solvent, room temperature, several months): no observable precipitation
solubility in the mixed extractant solvent ([3]; MC-8 varied from 0.01 M to 0.05 M in 0.075 M DtBuCH18C6, 0.75 M Cs-7SB, 0.003 M TOA in ISOPAR L): soluble at these increased concentrations
